Data taken from article PMC3348578 (2009).

What was measured:
[1] = tested on: FAP (purified recombinant FAP; His-tagged FAP lacking the transmembrane domain); assay: purified FAP in FAP assay buffer containing 100 mmol/L Tris, 100 mmol/L NaCl; settings: 37°C, up to 8 h
DPP4-like protease = assay: honeybee venom gland extracts; settings: cited from earlier work

not cleaved [1] | Substance | fragment found (DPP4-like protease) [dipeptide fragments]
not cleaved by FAP | NH2-GIGAVLKVLTTGLPALISWIKRKRQQ-NH2 | 
 | APEPEPAPEPEAEADAEADPEAGIGAVLKVLTTGLPALISWIKRKRQQ-NH2 | 11
